In US6747009B2, “Peptidomimetic glutathione analogs” (Universiteit Leiden, priority 2002, dated 2004):
Numbered stars: 1 amine (or outer) side, 2 acyl side, 3 side chain; on linkers, the order of the positions; unused ones are H or OH. Square brackets hold non-standard residues; d marks the D form. Peptide text beside a SMILES is read from it. * marks the point of attachment. ξ: configuration not given here. γGlu = O=C(O)[C@H](CCC(=O)[*:2])N[*:1]; ξPhg = NC(C(=O)O)c1ccccc1; Bn = c1ccc(C*)cc1

What was measured:
human GSTM1-1 = target: T1, human GSTM1-1 (Homo sapiens, UniProt P09488); experiment: GST inhibition assay (CDNB conjugation), Ki determination; format: biochemical; settings: human recombinant GSTM1-1; ± SD; 50 μM inhibitor, 50 μM-4 mM GSH, 1 mM CDNB, pH 6.5
T1 construct: purchased PanVers Corporation (Madison, Wis., USA)
T1 sequence (P09488 2-218 limits assumed): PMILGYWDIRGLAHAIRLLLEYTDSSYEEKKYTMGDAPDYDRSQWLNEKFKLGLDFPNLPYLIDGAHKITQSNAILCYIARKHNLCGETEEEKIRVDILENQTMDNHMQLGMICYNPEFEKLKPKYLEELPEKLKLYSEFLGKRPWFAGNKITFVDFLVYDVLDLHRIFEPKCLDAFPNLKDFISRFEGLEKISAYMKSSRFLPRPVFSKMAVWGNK
Method: (§1) Human recombinant GST isoenzymes A1-1, M1-1 and P1-1 were used for the GST inhibition assays. Experiments were performed according to Habig et al; (1974), J. Biol. Chem. 249, 7130-7139, modified for a 96-wells plate-reader assay. The purified human GST isoenzymes (10-20 ng/ml) were incubated with or without inhibitor (50 μM) in the presence of 8 different concentrations (50 μM-4 mM) GSH at 37° C. in 0.1 M potassium phosphate buffer pH 6.5/1 mM EDTA. The reaction was initiated by addition of CDNB in ethanol (final concentration 1 mM, 1% ethanol in assay mix), after which the formation of GS-DNB was spectrophotometrically monitored at 340 nm. Reaction rates were corrected for the non-enzymatic conjugate formation. Kt values (table 1) were determined using the Km, app method according to Kakkar et al. (1999), Drug Metab. Dispos. 27, 756-762; Kakkar et al. (2000), J. Pharmacol. Exp. Ther. 293, 861-869. Experiments were performed three times with quadruple measurements.

human GSTA1-1 = target: T2, human GSTA1-1 (Homo sapiens, UniProt P08263); experiment: as above; format: biochemical; settings: human recombinant GSTA1-1; ± SD; 50 μM inhibitor, 50 μM-4 mM GSH, 1 mM CDNB, pH 6.5
T2 construct: purchased PanVers Corporation (Madison, Wis., USA)
T2 sequence (P08263 1-222): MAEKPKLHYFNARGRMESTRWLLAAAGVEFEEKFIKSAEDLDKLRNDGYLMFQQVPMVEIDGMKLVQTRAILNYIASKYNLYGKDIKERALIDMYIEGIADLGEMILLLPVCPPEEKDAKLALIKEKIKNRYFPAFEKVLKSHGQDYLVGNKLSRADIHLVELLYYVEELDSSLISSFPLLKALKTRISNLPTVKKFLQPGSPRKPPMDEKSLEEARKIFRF
Method: as §1

human GSTP1-1 = target: T3, human GSTP1-1 (Homo sapiens, UniProt P09211); experiment: GST inhibition assay (CDNB conjugation), Ki and % inhibition; format: biochemical; settings: for inhibition at 50 µM: 1 mM GSH, 1 mM CDNB, 50 μM inhibitor, relative to non-inhibited rate
T3 construct: purchased PanVers Corporation (Madison, Wis., USA)
T3 sequence (P09211 2-210 limits assumed): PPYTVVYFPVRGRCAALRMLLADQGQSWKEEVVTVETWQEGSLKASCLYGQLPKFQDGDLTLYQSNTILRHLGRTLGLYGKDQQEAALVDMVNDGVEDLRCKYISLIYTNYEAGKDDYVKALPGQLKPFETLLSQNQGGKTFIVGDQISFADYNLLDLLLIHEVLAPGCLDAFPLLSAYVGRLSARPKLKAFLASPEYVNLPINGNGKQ
Method: as §1

[1] = tested on: bovine kidney γ-glutamyl transpeptidase; experiment: Stability towards γ-glutamyl transpeptidase (RP-HPLC disappearance of parent); format: in vitro ADME; settings: pH 7.4
Method: Peptide isosteres were incubated with 0.25 mg/ml bovine γ-glutamyltranspeptidase in 0.1M Tris-HCl buffer pH=7.4. At the appropriate time-point a sample (100 μL) was taken, heat inactivated and stored on ice until HPLC analysis. Disappearance of the indicated compounds was determined by RP-HPLC. Open markers indicate γGT sensitive compounds, closed markers are γGT stabilized.
The rate of degradation was determined by incubating 250 μM of GluPhg-Benzyl, RedPhg-Benzyl and UtPhg-Benzyl at 37° C. with 0.25 mg/ml bovine kidney γ-glutamyl transpeptidase in 0.1 M Tri-HCl buffer, pH 7.4, supplemented with 0.1 mM EDTA. At selected time-intervals, a 100 μL sample was taken, heat-inactivated, and stored on ice until HPLC-analysis. Analysis was performed by RP-HPLC on an Altech Platinum C18 column, using 50 mM ammonium acetate buffer pH 3.8, supplemented with 10-20% acetonitrile (optimized for the various peptide analogues) as eluent. Disappearance of the parent peak was determined by UV absorbency at […]. Remaining percentage of the parent compounds was determined as ratio of peak areas relative to the initial (t=0min) value.
The rate of degradation was determined by incubating 250 μM of the GS-EA analogues at 37° C. with 0.25 mg/ml bovine kidney γ-glutamyltranspeptidase in 0.1M Tris-HCl buffer, pH=7.4, supplemented with 0.1mM EDTA. At selected time-intervals, a 100 μL sample was taken, heat-inactivated, and stored on ice until HPLC-analysis. Analysis was performed by RP-HPLC on an Alltech Platinum C18 column, using 50mM ammonium acetate buffer pH=3.8, supplemented with 10-20% acetonitrile (optimized for the various peptide analogues) as eluent. Disappearance of the […] peak and emergence of the corresponding dipeptide-EA conjugate was detected by UV absorbency at 270 nm. Remaining percentage of the parent compounds was determined as ratio of peak areas relative to the initial (t=0 min) value. Results were corrected for non-peptidase mediated degradation of the ethacrynic acid conjugates.

[2] = tested on: rat liver cytosolic GSTs (S100); experiment: Inhibition of rat liver cytosolic GSTs (S100), CDNB conjugation; format: biochemical; settings: S100, 1 mM GSH, 1 mM CDNB, pH 6.5, six inhibitor concentrations
Method: Inhibition of GST mediated CDNB-conjugation was tested at pH=6.5, in the presence of non-limiting concentrations of GSH (1 mM) and CDNB (1 mM). The shown data are averages of three separate determinations. For clarity, error-bars were not included. […] Open markers with dotted lines indicate γGT sensitive compounds, closed markers with closed lines are γGT stabilized structures.
Freshly isolated rat livers were emulsified in 0.1M KCl using a Potter-Elvehjem homogeniser. After initial centrifugation for 30 minutes at 9000 g, the resulting supernatant was subjected to a second centrifugation for 75 minutes at 10^5 g. The cytosolic protein containing supernatant (S100) was used for the GST inhibition experiments. GST inhibition experiments were performed. All solutions were kept on ice until use. Various concentrations of the inhibitions were incubated at 37° C. with rat liver cytosol (1 μl, containing […] of total protein) in sodium-phosphate buffer, pH 6.5, supplemented with 0.1 mM EDTA and 1 mM GSH. Reaction was started by adding 4 μL CDNB in ethanol (final concentration=1 mM, maximal ethanol content=2% v/v). Formation of the GS-CDNB conjugate was followed at 340 nm for 5 minutes. Initial reaction velocities were corrected for the spontaneous (not GST catalyzed) reaction rates. Inhibition was determined as percentage of the non-inhibited reaction rate. Experiments were performed three times with duplicate measurements.
GST inhibition was tested at six concentrations of the GS-EA mimics.

JNK in MTLn3 cells = experiment: JNK activation (phospho-JNK immunoblot); format: cell-based; settings: MTLn3/Neo and MTLn3/GSTπ; 50 μM Et2-RP-Bzl, Et2-UrP-Bzl or 20 μM TER199; 8 hours
Method: Confluent monolayers of VCREMS, MTLn3/Neo (3 clones) and MTLn3/GSTπ (3 clones) cells in 12-well culture dishes were exposed for 8 or 16 hours to 50 μM of Et2-RP-Bzl, Et2-UrP-Bzl or 20 μM TER199 (all di-ethyl esters) in full medium at 37° C. Cells were then washed and subsequently scraped in ice-cold PBS. For MTLn3 cells, suspensions of the three different neo and three different GSTπ clones were combined. After centrifugation (10 min, 250 g, 4° C.), the cells were lysed by ultrasonication in cold TSB (10 mM Tris, 250 mM sucrose, 1 mM EGTA, pH 7.4), containing protease inhibitors (50 mM Na3VO4, 10 μg/ml leupeptin, 10 μg/ml pepstain, 1 mM phenylmethylsulfonylfuloride). Protein concentration was determined using the Bradford protein assay, using IgG as a standard.
For GSTπ blotting, non-reducing and non-denaturing conditions were used to keep GSTP in its original (homodimer) state. JNK blots were subjected to standard Western blotting sample pre-treatment protocols. Twenty micrograms of total cellular protein was separated by SDS-polyacrylamide gel electrophoresis and subsequently transferred to polyvinylidene difluoride membrane (Millipore). […] Active JNK was detected by an alkaline phosphatase coupled goat antibody, which was visualized with the Tropix kit (PerkinElmer Life Sciences).

MTLn3/Neo cells = experiment: Modulation of thiotepa cytotoxicity (cell proliferation by DNA content); format: cell-based; settings: read-out: IC50 value of thiotepa, No Inh
Method: (§2) Cells (MCF7, VCREMS, 3 MTLn3/neo clones and 3 MTLn3/GSTP1-1 clones) were seeded at 10^4 cells/well in 24-wells polyethylene culture dishes. […] Various concentrations (3 μM-10 mM) of thiotepa (in serum-free medium) were added. After 4 hrs at 37° C., cells were washed twice with PBS, and subsequently incubated for 72 hours in culture medium (in absence of inhibitor). The cells were then rinsed once with BPS and lysed by repeated freeze-thaw cycles in 200 μl water, followed by homogenization on a rotary shaker. […] Stained DNA was measured by spectrofluorometry (excitation: 360 nm, emission 465 nm). A calibration curve of calf thymus DNA was used to determine total DNA quantities. Growth curves were calculated using the IC50 module of the enzyme kinetics program Grafit (version 3.0, Erithacus Software Ltd.).

VCREMS cells = experiment: as above; format: cell-based; settings: read-out: IC50 value of thiotepa, No Inh
Method: as §2

MTLn3/GSTπ cells = experiment: as above; format: cell-based; settings: read-out: IC50 value of thiotepa, No Inh
Method: as §2

MCF7 cells = experiment: as above; format: cell-based; settings: Homo sapiens, MCF7, read-out: IC50 value of thiotepa, No Inh
Method: as §2

[3] = 250 μM compound, 0.25 mg/ml bovine kidney γGT, 37° C.

## N[C@@H](CCC(=O)N[C@@H](CSCc1ccccc1)C(=O)NC(C(=O)O)c1ccccc1)C(=O)O (stereo partly drawn) [GluPhg-Benzyl (I), γ-L-glutamyl-L-cysteinyl(benzyl)-D-phenylglycine, reference compound] (γGlu-Cys(Bn)-[ξPhg]-OH)
Human GSTM1-1
  Ki: 21 ± 4 µM
Human GSTA1-1
  Ki: 23 ± 6 µM
Human GSTP1-1
  Ki: 0.8 ± 0.3 µM

## CCC(CSC[C@H](NC(=O)CC[C@H](N)C(=O)O)C(=O)NCC(=O)O)C(=O)c1ccc(OCC(=O)O)c(Cl)c1Cl (stereo partly shown) [I, γ-Glu[Cys(EA)-Gly-OH]—OH, reference compound]
[1]; [3]
  stability towards γGT (in words): cleaved rapidly
  time to complete degradation of the GSH backbone by γGT: ≤ 20 min

## CN(C(=O)CC[C@H](N)C(=O)O)[C@@H](CS)C(=O)NCC(=O)O [III, γ-Glu[MeCys-Gly-OH]—OH]
[2]
  inhibition of rat liver cytosolic GSTs (in words): a decrease in inhibition was seen

## N[C@@H](CCCN[C@@H](CSCc1ccccc1)C(=O)NC(C(=O)O)c1ccccc1)C(=O)O (stereo partly shown) [RedPhg-Benzyl (II)]
Human GSTM1-1
  Ki: 29 ± 6 µM
Human GSTA1-1
  Ki: 55 ± 11 µM
Human GSTP1-1
  Ki: 6 ± 3 µM
  inhibition at 50 µM: 81%

## CCOC(=O)[C@@H](N)CCC(=O)N[C@@H](CSCc1ccccc1)C(=O)N[C@@H](C(=O)OCC)c1ccccc1 [TER199]
JNK in MTLn3 cells
  phospho-JNK (JNK1, JNK2) formation: a small band appeared just below the 54 kDa active JNK2 band

## N[C@@H](COC(=O)N[C@@H](CSCc1ccccc1)C(=O)NC(C(=O)O)c1ccccc1)C(=O)O (stereo partly shown) [UrPhg-Benzyl (III), H-Glo[Cys(Bzl)-Phg-OH]-OH]
Human GSTM1-1
  Ki: 16 ± 2 µM
Human GSTA1-1
  Ki: 29 ± 4 µM
Human GSTP1-1
  Ki: 3 ± 2 µM
  inhibition at 50 µM: 93%

## S=P(N1CC1)(N1CC1)N1CC1 [thiotepa]
MTLn3/Neo cells
  IC50: 164 ± 9 µM
VCREMS cells
  IC50: 2.84 ± 1.1 mM
MTLn3/GSTπ cells
  IC50: 219 ± 21 µM
MCF7 cells
  IC50: 699 ± 50 µM

## H-Glo[Cys(EA)-Gly-OH]—OH [VI]
[2]
  inhibition of rat liver cytosolic GSTs (in words): efficient γGT stable inhibitors

## H-Glu[Ψ(CH2NH)-Cys(EA)-Gly-OH]—OH [V]
[2]
  inhibition of rat liver cytosolic GSTs (in words): efficient γGT stable inhibitors

## γ-Glu[2-amino-1-mercapto(S-EA)-6-hexanoic acid]-OH [IV]
[1]; [3]
  stability towards γGT (in words): very sensitive towards γGT mediated cleavage
[2]
  inhibition of rat liver cytosolic GSTs (in words): poor inhibitor of cytosolic GSTs

## γ-Glu[Cys(EA)-Src-OH]—OH [II]
[1]
  t½ of γGT mediated hydrolysis: approximately equal to the half-life of GS-EA
[2]
  inhibition of rat liver cytosolic GSTs (in words): comparable inhibition pattern to compound I
